Measurements published in paper PMC3240935, “Development and characterization of a novel C-terminal inhibitor of Hsp90 in androgen dependent and independent prostate cancer cells” (2011).

Target: T1, Hsp90β (Homo sapiens, UniProt P08238)
T1 construct: gene HSP90AB1; recombinant Hsp90β purified from baculovirus infected Sf9 cells
Assay: SPR, immobilized Hsp90β, binding curve fit (kinetic Kd […])

T1 sequence (P08238 2-724): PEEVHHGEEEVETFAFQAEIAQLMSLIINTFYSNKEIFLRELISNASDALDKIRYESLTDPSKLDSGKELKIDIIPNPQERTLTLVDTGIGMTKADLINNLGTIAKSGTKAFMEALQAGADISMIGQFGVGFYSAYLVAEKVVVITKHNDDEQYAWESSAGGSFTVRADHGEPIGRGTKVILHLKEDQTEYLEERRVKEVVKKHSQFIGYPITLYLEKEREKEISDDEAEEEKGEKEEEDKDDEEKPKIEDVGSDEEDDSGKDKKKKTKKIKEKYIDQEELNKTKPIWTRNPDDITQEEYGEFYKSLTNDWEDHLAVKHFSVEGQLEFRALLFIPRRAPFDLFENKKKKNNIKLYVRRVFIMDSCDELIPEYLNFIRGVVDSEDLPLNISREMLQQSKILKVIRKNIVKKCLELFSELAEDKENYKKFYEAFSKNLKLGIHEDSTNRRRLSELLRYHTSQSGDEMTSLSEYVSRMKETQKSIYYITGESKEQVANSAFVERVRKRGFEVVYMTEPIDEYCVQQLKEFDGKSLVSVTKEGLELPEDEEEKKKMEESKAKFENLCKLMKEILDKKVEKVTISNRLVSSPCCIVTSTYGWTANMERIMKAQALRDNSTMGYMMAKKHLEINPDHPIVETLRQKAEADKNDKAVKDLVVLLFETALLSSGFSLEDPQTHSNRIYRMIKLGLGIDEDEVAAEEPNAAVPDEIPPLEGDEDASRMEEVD

Kd: 78 µM
Substance: KU174
